Measured values as given in patent US20240041042A1, “1-(PYRIDYL)-5-AZINYLPYRAZOLE DERIVATIVES, AND THEIR USE FOR CONTROL OF UNDESIRED PLANT GROWTH” (Bayer Aktiengesellschaft, priority 2020, published 2024).
Like-named read-outs stand apart in the source and are kept apart here.

Columns and labels:
Type in all cases: in vivo
[1] = system: Alopecurus myosuroides (ALOMY); test: Pre-emergence herbicidal action against ALOMY; conditions: 320 g/ha; scored visually after about 3 weeks; 100% = plants have died
How it was run: (§1)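 Herbicide applied to soil before seedling emergence, at 600 l/ha spray volume with 0.5% additive and rates up to 320 g/ha. Evaluation: visual percentage effect, about 3 weeks later, greenhouse-grown pots compared with untreated ones.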

[2] = system: Amaranthus retroflexus (AMARE); test: Pre-emergence herbicidal action against AMARE; conditions: 320 g/ha, visual scoring after about 3 weeks vs untreated controls
How it was run: as §1

[3] = system: Echinochloa crus-galli (ECHCG); test: Pre-emergence herbicidal action against ECHCG; conditions: dosage 320 g/ha
How it was run: as §1

[4] = system: Matricaria inodora (MATIN); test: Pre-emergence herbicidal action against MATIN; conditions: dosage 320 g/ha
How it was run: as §1

[5] = system: Polygonum convolvulus (POLCO); test: Pre-emergence herbicidal action against POLCO; conditions: dosage 320 g/ha
How it was run: as §1

[6] = system: Setaria viridis (SETVI); test: Pre-emergence herbicidal action against SETVI; conditions: dosage 320 g/ha
How it was run: as §1

[7] = system: Glycine max (GLXMA); conditions: pre-emergence, 80 g/ha, crop plant compatibility, in comparison to untreated controls
How it was run: (§2)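 Scoring: visual, % of untreated control, about 3 weeks after a pre-emergence application to the soil surface. Application used WP or EC formulations diluted in water with 0.5% additive at 600 l/ha; dosage levels are marked by suffixes a, b and c.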

[8] = system: Zea mays (ZEAMX); conditions: pre-emergence, crop plant compatibility, in comparison to untreated controls
How it was run: as §2

[9] = system: Abutilon theophrasti (ABUTH); test: Post-emergence herbicidal action against ABUTH; conditions: 320 g/ha, visual rating about 3 weeks after treatment vs untreated controls (100% = plants have died, 0% = like control plants)
How it was run: (§3)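 Rates were 320 g/ha or below, applied as aqueous WP/EC spray with 0.5% additive (600 l/ha) onto one-leaf-stage plants. About 3 weeks later in the greenhouse, damage was scored visually against untreated plants on a 0–100% scale, where 100% means plants died.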

[10] = system: Amaranthus retroflexus (AMARE); test: Post-emergence herbicidal action against AMARE
How it was run: as §3

[11] = system: Echinochloa crus-galli (ECHCG); test: Post-emergence herbicidal action against ECHCG; conditions: dosage 320 g/ha
How it was run: as §3

[12] = system: Lolium rigidum (LOLRI); test: Post-emergence herbicidal action against LOLRI; conditions: dosage 320 g/ha
How it was run: as §3

[13] = system: Matricaria inodora (MATIN); test: Post-emergence herbicidal action against MATIN; conditions: dosage 320 g/ha
How it was run: as §3

[14] = system: Pharbitis purpurea (PHBPU); test: Post-emergence herbicidal action against PHBPU
How it was run: as §3

[15] = system: Polygonum convolvulus (POLCO); test: Post-emergence herbicidal action against POLCO; conditions: dosage 320 g/ha
How it was run: as §3

[16] = system: Setaria viridis (SETVI); test: Post-emergence herbicidal action against SETVI; conditions: dosage 320 g/ha
How it was run: as §3

[17] = system: Verconica persica (VERPE); test: Post-emergence herbicidal action against VERPE
How it was run: as §3

[18] = system: Brassica napus (BRSNW); conditions: 80 g/ha, crop plant compatibility, in comparison to untreated controls
How it was run: as §2

[19] = system: Oryza sativa (ORYSA); conditions: pre-emergence, crop plant compatibility, in comparison to untreated controls
How it was run: as §2

[20] = system: Triticum aestivum (TRZAS); conditions: pre-emergence, crop plant compatibility, in comparison to untreated controls
How it was run: as §2

[21] = system: Oryza sativa (ORYSA); conditions: crop plant compatibility, effect in comparison to untreated controls
How it was run: (§4)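 Foliar application at the one-leaf stage: WP/EC formulation, 0.5% additive, 600 l/ha water. Greenhouse-grown in sandy loam. Endpoint is visual % injury relative to untreated controls at about 3 weeks.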

[22] = system: Triticum aestivum (TRZAS); conditions: crop plant compatibility, 80 g/ha, effect vs untreated controls
How it was run: as §4

[23] = system: Zea mays (ZEAMX); conditions: crop plant compatibility, effect vs untreated controls
How it was run: as §4

[24] = system: Digitaria sanguinalis (DIGSA); test: Pre-emergence herbicidal action against DIGSA; conditions: dosage 320 g/ha
How it was run: as §1

[25] = system: Lolium rigidum (LOLRI); test: Pre-emergence herbicidal action against LOLRI; conditions: dosage 320 g/ha
How it was run: as §1

[26] = system: Viola tricolor (VIOTR); test: Pre-emergence herbicidal action against VIOTR; conditions: 320 g/ha, Viola tricolor
How it was run: as §1

[27] = system: Alopecurus myosuroides (ALOMY); test: Post-emergence herbicidal action against ALOMY; conditions: 320 g/ha, visual rating about 3 weeks after treatment vs untreated controls (100% = plants have died, 0% = like control plants)
How it was run: as §3

[28] = system: Viola tricolor (VIOTR); test: Post-emergence herbicidal action against VIOTR; conditions: 320 g/ha
How it was run: as §3

| Pre-emergence action against GLXMA in % [7] [%] | Pre-emergence action against ZEAMX in % ([8]; 80 g/ha) [%] | Pre-emergence action against ZEAMX in % ([8]; 320 g/ha) [%] | Post-emergence action against ORYSA in % ([21]; 80 g/ha) [%] | Post-emergence action against ORYSA in % ([21]; 320 g/ha) [%] | Post-emergence action against ZEAMX in % ([23]; 80 g/ha) [%] | Post-emergence action against ZEAMX in % ([23]; 320 g/ha) [%] | SMILES | Pre-emergence action against ALOMY [1] [%] | Pre-emergence action against AMARE in % [2] [%] | Post-emergence action against ABUTH in % [9] [%] | Post-emergence action against LOLRI in % [12] [%] | Post-emergence action against POLCO in % [15] [%] | further results |
| --- | --- | --- | --- | --- | --- | --- | --- | --- | --- | --- | --- | --- | --- |
| 0 | 0 | 10 |  |  |  |  | COC(=O)CCOC(=O)COc1nn(-c2ccccn2)c(-c2ccc(F)nc2)c1F [Example I-309] | 90 | 90 | 80 | 90 | 80 | Pre-emergence action against ECHCG in % [3]: 80%; Pre-emergence action against MATIN in % [4]: 90%; Pre-emergence action against POLCO in % [5]: 80%; Pre-emergence action against SETVI in % [6]: 90%; Post-emergence action against AMARE in % ([10]; 80 g/ha, visual rating about 3 weeks after treatment vs untreated controls (100% = plants have died, 0% = like control plants)): 90%; Post-emergence action against AMARE in % ([10]; 320 g/ha, visual rating about 3 weeks after treatment): 90%; Post-emergence action against ECHCG in % [11]: 90%; Post-emergence action against MATIN in % [13]: 80%; Post-emergence action against PHBPU in % ([14]; dosage 80 g/ha): 80%; Post-emergence action against PHBPU in % ([14]; dosage 320 g/ha): 90%; Post-emergence action against SETVI in % [16]: 90%; Post-emergence action against VERPE in % ([17]; 320 g/ha, VERPE): 80%; Post-emergence action against VERPE in % ([17]; dosage 80 g/ha): 80% |
|  | 0 | 10 | 0 | 0 | 0 | 0 | CC(=O)CNC(=O)COc1nn(-c2ccnc(F)c2)c(-c2ccc(F)nc2)c1Br [III-07] | 80 |  | 80 |  |  | Pre-emergence action against BRSNW in % [18]: 0%; Pre-emergence action against ORYSA in % ([19]; 80 g/ha): 0%; Pre-emergence action against ORYSA in % ([19]; 320 g/ha): 20%; Pre-emergence action against TRZAS in % ([20]; 80 g/ha): 0%; Pre-emergence action against TRZAS in % ([20]; 320 g/ha): 0%; Post-emergence action against TRZAS in % [22]: 0% |
| 20 |  |  | 0 | 0 | 10 | 20 | C[C@@H](Oc1nn(-c2ccccn2)c(-c2ccc(Cl)nc2)c1Br)C(=O)O [Example I-240] | 90 | 90 |  | 80 | 80 | Pre-emergence action against DIGSA in % [24]: 90%; Pre-emergence action against LOLRI in % [25]: 90%; Pre-emergence action against VIOTR in % [26]: 90%; Post-emergence action against ALOMY in % [27]: 80%; Post-emergence action against VIOTR in % [28]: 80% |
